Source: US12599672B2, “KRAS proteolysis targeting chimeras” (PAQ Therapeutics Inc., priority 2023, dated 2026)

Legend:
KRAS G12D = target: T1, KRAS G12D (Homo sapiens, UniProt P01116, G12D); assay: KRAS G12D HiBit assay; format: cell-based; settings: AsPc-1-KRAS (G12D)-HiBit-KI cell, compound treatment for 24 hours; for DC50: absolute DC50
T1 construct: AsPc-1-KRAS (G12D)-HiBit-KI cell (Pharmaron); host or cells: AsPc-1-KRAS (G12D)-HiBit-KI cells (HiBiT knock-in at the endogenous KRAS locus)
Protocol: Day 1. […] Allowed cells to reach approximately 80% confluence before splitting. Rinsed cultivated cells in T-75 flasks with 5 mL PBS (Solarbio, P1020-500). […] Inactivated trypsin by adding excessive serum containing medium. Harvested the cells from flask into cell culture medium and counted the cell number.
Day 2. Test compounds were dissolved at 0.3 mM in DMSO (Solarbio, D8371) as stock solution. […] Performed 3-fold, 10-points dilution via transferring 15 μL compound into 30 μL DMSO by using TECAN liquid handler (TECAN, Freedom EVO200).
Day 3. After compound treatment for 24 hours, removed the plate from incubators and equilibrated at room temperature for 15 minutes. Prepared the HiBit reagent (Promega, N3040) by mixing 10 mL of Nano-Glo®-HiBiT Lytic Buffer with 200 μL of Nano-Glo®-HiBiT Lytic Substrate and 100 μL of LgBiT Protein. Added 20 μL of HiBit reagent into each well of the cell plate and spun the plates at room temperature at 1,000 RPM for 1 minute.
The inhibition activity was calculated using the following formula:
(§1) [formula] where HC (high control) is obtained from cells treated with 0.1% DMSO only.

KRAS G12V = target: T2, KRAS G12V (Homo sapiens, UniProt P01116, G12V); assay: KRAS G12V HiBit assay; format: cell-based; settings: SW620-KRAS (G12V)-HiBit-KI cells, compound treatment for 24 hours, class symbols
T2 construct: SW620-KRAS (G12V)-HiBit-KI cell (Pharmaron); host or cells: SW620-KRAS (G12V)-HiBit-KI cells (HiBiT knock-in at the endogenous KRAS locus)
Protocol: Day 1. […] Rinsed cultivated cells in T-75 flasks with 5 mL PBS (Solarbio, P1020-500). […] Inactivated trypsin by adding excessive serum containing medium. Harvested the cells from flask into cell culture medium and counted the cell number.
Day 2. Test compounds were dissolved at 0.3 mM in DMSO (Solarbio, D8371) as stock solution. […] Performed 3-fold, 10-points dilution via transferring 15 μL compound into 30 μL DMSO by using TECAN liquid handler (TECAN, Freedom EVO200). […] After compound treatment for 24 hours, the plate was removed from incubators and equilibrated at room temperature for 15 minutes. Prepare the HiBit reagent (Promega, N3040) by mixing 10 mL of Nano-Glo®-HiBiT Lytic Buffer with 200 μL of Nano-Glo®-HiBiT Lytic Substrate and 100 μL of LgBiT Protein. Added 20 μL of HiBit reagent into each well of the cell plate and spun the plates at room temperature at 1,000 RPM for 1 minute.
The degradation activity was calculated using the following formula:
as §1

T2 sequence (P01116 1-188 isoform P01116-2 G12V): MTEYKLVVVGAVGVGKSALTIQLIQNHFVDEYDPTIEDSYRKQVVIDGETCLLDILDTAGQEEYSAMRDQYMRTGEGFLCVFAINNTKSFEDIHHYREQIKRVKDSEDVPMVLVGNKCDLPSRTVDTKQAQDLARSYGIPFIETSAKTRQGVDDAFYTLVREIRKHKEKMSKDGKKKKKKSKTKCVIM
T1 sequence (P01116 1-188 isoform P01116-2 G12D): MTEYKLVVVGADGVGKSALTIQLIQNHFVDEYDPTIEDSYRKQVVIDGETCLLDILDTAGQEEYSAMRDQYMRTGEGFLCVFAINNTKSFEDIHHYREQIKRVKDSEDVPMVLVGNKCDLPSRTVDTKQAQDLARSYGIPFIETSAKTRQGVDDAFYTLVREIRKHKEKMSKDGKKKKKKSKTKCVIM

Compound | DC50 (KRAS G12D; class symbols) [nM] | DC50 (KRAS G12V) [nM] | Dmax (KRAS G12D; class symbols) [%] | DC50 (KRAS G12D; numeric bounds given in place of class symbols) [nM]
C#Cc1c(F)ccc2cc(O)cc(-c3ccc4c(N5CCC[C@@](C)(O)C5)nc(OCC5(CN6CCC(CN7CCN(c8ccc9c(c8)n(C)c(=O)n9C8CCC(=O)NC8=O)CC7)CC6)CC5)nc4c3F)c12 (stereo partly drawn) [Compound 12] | < 100 | > 100 | – | –
C#Cc1c(F)ccc2cc(O)cc(-c3ncc4c(N5CCC[C@@](C)(O)C5)nc(OCC5(CN6CCC(CN7CCN(c8ccc9c(c8)n(C)c(=O)n9C8CCC(=O)NC8=O)CC7)CC6)CC5)nc4c3F)c12 (stereo partly drawn) [Compound 25] | < 100 | < 10 | – | –
C#Cc1c(F)ccc2cc(O)cc(-c3ncc4c(N5CCC[C@@](C)(O)C5)nc(OCC5(CN6CCN(CCN7CCN(c8ccc9c(c8)n(C)c(=O)n9C8CCC(=O)NC8=O)CC7)CC6)CC5)nc4c3F)c12 (stereo partly drawn) [Compound 28] | < 100 | > 100 | – | –
C#Cc1c(F)ccc2cc(O)cc(-c3ncc4c(N5CCC[C@@](C)(O)C5)nc(OCC5(CN6CCC7(CC6)CN(c6ccc8c(c6)n(C)c(=O)n8C6CCC(=O)NC6=O)C7)CC5)nc4c3F)c12 (stereo partly drawn) [Compound 33] | > 300 | > 100 | – | –
C#Cc1c(F)ccc2cc(O)cc(-c3ncc4c(N5CCC[C@@](C)(O)C5)nc(OCC5(CN6CCN(Cc7ccc8c(c7)n(C)c(=O)n8C7CCC(=O)NC7=O)CC6)CC5)nc4c3F)c12 (stereo partly drawn) [Compound 42] | > 300 | > 100 | – | –
C#Cc1c(F)ccc2cccc(-c3ncc4c(N5CCC[C@@](C)(O)C5)nc(OCC5(CN6CCC(CN7CCN(c8ccc9c(c8)C(=O)N(C8CCC(=O)NC8=O)C9=O)CC7)CC6)CC5)nc4c3F)c12 (stereo partly drawn) [Compound 49] | – | > 100 | – | > 160
C#Cc1c(F)ccc2cc(O)cc(-c3ncc4c(N5CCC[C@@](C)(O)C5)nc(OCC5(CN6CC7(C6)CN(c6ccc8c(c6)n(C)c(=O)n8C6CCC(=O)NC6=O)C7)CC5)nc4c3F)c12 (stereo partly drawn) [Compound 51] | < 100 | > 100 | – | –
C#Cc1c(F)ccc2cccc(-c3ncc4c(N5CCC[C@@](C)(O)C5)nc(OCC5(CN6CCN(C7CCN(c8ccc9c(c8)n(C)c(=O)n9C8CCC(=O)NC8=O)CC7)CC6)CC5)nc4c3F)c12 (stereo partly drawn) [Compound 53] | > 300 | > 100 | – | –
C#Cc1c(F)ccc2cc(O)cc(-c3ncc4c(N5CCC[C@@](C)(O)C5)nc(OCC5(CN6CCN(Cc7cccc8c7n(C)c(=O)n8C7CCC(=O)NC7=O)CC6)CC5)nc4c3F)c12 (stereo partly drawn) [Compound 63] | > 300 | > 100 | – | –
C#Cc1c(F)ccc2cc(O)cc(-c3ncc4c(N5CCC[C@@](C)(O)C5)nc(OCC5(CN6CCC(CN7CCC(c8cccc9c8n(C)c(=O)n9C8CCC(=O)NC8=O)CC7)CC6)CC5)nc4c3F)c12 (stereo partly drawn) [Compound 65] | < 100 | > 100 | – | –
C#Cc1c(F)ccc2cc(O)cc(-c3ncc4c(N5CCC[C@@](C)(O)C5)nc(OCC5(CN6CCC(CN7CCN(c8cccc9c8n(C)c(=O)n9C8CCC(=O)NC8=O)CC7)CC6)CC5)nc4c3F)c12 (stereo partly drawn) [Compound 72] | < 100 | < 10 | – | –
C#Cc1c(F)ccc2cccc(-c3ncc4c(N5CCC[C@@](C)(O)C5)nc(OCC5(CN6CCC(N7CCC(c8cccc9c8n(C)c(=O)n9C8CCC(=O)NC8=O)CC7)CC6)CC5)nc4c3F)c12 (stereo partly drawn) [Compound 74] | > 300 | > 100 | – | –
C#Cc1c(F)ccc2cccc(-c3ncc4c(N5CCC[C@@](C)(O)C5)nc(OCC5(CN6CCN(CC7CCN(c8cccc9c8n(C)c(=O)n9C8CCC(=O)NC8=O)CC7)CC6)CC5)nc4c3F)c12 (stereo partly drawn) [Compound 78] | > 300 | > 100 | – | –
CCc1c(F)ccc2cccc(-c3ncc4c(N5CCC[C@@](C)(O)C5)nc(OC[C@@]56CCCN5[C@H](COC(=O)N5CCC(CN7CCC(c8ccc9c(c8)n(C)c(=O)n9C8CCC(=O)NC8=O)CC7)CC5)CC6)nc4c3F)c12 (stereo partly drawn) [Compound 94, [(3S,8S)-8-[[7-(8-ethyl-7-fluoro-1-naphthyl)-8-fluoro-4-[(3R)-3-hydroxy-3-methyl-1-piperidyl]pyrido[4,3-d]pyrimidin-2-yl]oxymethyl]-1,2,3,5,6,7-hexahydropyrrolizin-3-yl]methyl-4-[[4-[1-(2,6-dioxo-3-piperidyl)-3-methyl-2-oxo-benzimidazol-5-yl]-1-piperidyl]methyl]piperidine-1-carboxylate] | < 100 | > 100 | > 50 | –
CCc1c(F)ccc2cccc(-c3ncc4c(N5CCC[C@@](C)(O)C5)nc(OC[C@@]56CCCN5[C@H](COC(=O)NCCOCCOc5ccc7c(c5)n(C)c(=O)n7C5CCC(=O)NC5=O)CC6)nc4c3F)c12 (stereo partly drawn) [Compound 103, ((3S,7aS)-7a-(((7-(8-ethyl-7-fluoronaphthalen-1-yl)-8-fluoro-4-((R)-3-hydroxy-3-methylpiperidin-1-yl)pyrido[4,3-d]pyrimidin-2-yl)oxy)methyl)hexahydro-1H-pyrrolizin-3-yl)methyl (2-(2-((1-(2,6-dioxopiperidin-3-yl)-3-methyl-2-oxo-2,3-dihydro-1H-benzo[d]imidazol-5-yl)oxy)ethoxy)ethyl) carbamate] | > 300 | > 100 | 15 to 50 | –

Further lines, results first:

DC50 (KRAS G12D; class symbols) [nM] | DC50 (KRAS G12V) [nM] | Dmax (KRAS G12D; class symbols) [%] | DC50 (KRAS G12D; numeric bounds given in place of class symbols) [nM] | Compound
< 100 | > 100 | > 50 | – | C#Cc1c(F)ccc2cc(O)cc(-c3ncc4c(N5CCCCCC5)nc(OCC5(CN6CCN(CC7CCN(c8ccc9c(c8)n(C)c(=O)n9C8CCC(=O)NC8=O)CC7)CC6)CC5)nc4c3F)c12 (stereo not drawn) [Compound 16]
< 100 | > 100 | > 50 | – | C#Cc1c(F)ccc2cc(O)cc(-c3ncc4c(N5CCCC(F)(F)C5)nc(OCC5(CN6CCN(CC7CCN(c8ccc9c(c8)n(C)c(=O)n9C8CCC(=O)NC8=O)CC7)CC6)CC5)nc4c3F)c12 (stereo not drawn) [Compound 17, 3-(5-(4-((4-((1-(((4-(3,3-Difluoropiperidin-1-yl)-7-(8-ethynyl-7-fluoro-3-hydroxynaphthalen-1-yl)-8-fluoropyrido[4,3-d]pyrimidin-2-yl)oxy)methyl)cyclopropyl)methyl)piperazin-1-yl)methyl)piperidin-1-yl)-3-methyl-2-oxo-2,3-dihydro-1H-benzo[d]imidazol-1-yl) piperidine-2,6-dione]
> 300 | > 100 | 15 to 50 | – | C#Cc1c(F)ccc2cc(O)cc(-c3ncc4c(N5CCOCC5)nc(OCC5(CN6CCN(CC7CCN(c8ccc9c(c8)n(C)c(=O)n9C8CCC(=O)NC8=O)CC7)CC6)CC5)nc4c3F)c12 (stereo not drawn) [Compound 18, 3-[5-[4-[[4-[[1-[[7-(8-Ethynyl-7-fluoro-3-hydroxy-1-naphthyl)-8-fluoro-4-morpholino-pyrido[4,3-d]pyrimidin-2-yl]oxymethyl]cyclopropyl]methyl]piperazin-1-yl]methyl]-1-piperidyl]-3-methyl-2-oxo-benzimidazol-1-yl]piperidine-2,6-dione]
< 100 | > 100 | – | – | C#Cc1c(F)ccc2cc(O)cc(-c3ncc4c(N5CCC[C@@](C)(O)C5)nc(OCC5(CN6CCC(CN7CCC(c8ccc9c(c8)n(C)c(=O)n9C8CCC(=O)NC8=O)CC7)CC6)CC5)nc4c3F)c12 (stereo partly drawn) [Compound 47]
< 100 | > 100 | – | – | C#Cc1c(F)ccc2cccc(-c3ncc4c(N5CCC[C@@](C)(O)C5)nc(OCC5(CN6CCC(N7CCC(c8ccc9c(C%10CCC(=O)NC%10=O)nn(C)c9c8)CC7)CC6)CC5)nc4c3F)c12 (stereo partly drawn) [Compound 57]
< 100 | > 100 | – | – | C#Cc1c(F)ccc2cccc(-c3ncc4c(N5CCC[C@@](C)(O)C5)nc(OCC5(CN6CCC(CN7CCC(c8cccc9c8n(C)c(=O)n9C8CCC(=O)NC8=O)CC7)CC6)CC5)nc4c3F)c12 (stereo partly drawn) [Compound 60]
> 300 | > 100 | – | – | C#Cc1c(F)ccc2cccc(-c3ncc4c(N5CCC[C@@](C)(O)C5)nc(OCC5(CN6CCC7(CC6)CC(N6CCN(c8cccc9c8n(C)c(=O)n9C8CCC(=O)NC8=O)CC6)C7)CC5)nc4c3F)c12 (stereo partly drawn) [Compound 70]
> 300 | > 100 | – | – | C#Cc1c(F)ccc2cccc(-c3ncc4c(N5CCC[C@@](C)(O)C5)nc(OCC5(CN6CCC(CN7CCN(c8cccc9c8n(C)c(=O)n9C8CCC(=O)NC8=O)CC7)CC6)CC5)nc4c3F)c12 (stereo partly drawn) [Compound 73]
